Numbers after ± are expanded uncertainties.
Assay: molar heat capacity at constant pressure
Details: 101.33 kPa, Crystal, Small (less than 1 g) adiabatic calorimetry

O=C([O][Sb]([c]1ccccc1)([c]1ccccc1)([c]1ccccc1)[c]1ccccc1)c1ccccc1 [tetraphenylantimony benzoate]
Details | molar heat capacity at constant pressure [J/K/mol]
5 K | 1.72 ± 0.083
5.54 K | 2.34 ± 0.11
5.81 K | 2.55 ± 0.12
6.27 K | 3.24 ± 0.14
6.56 K | 3.56 ± 0.16
6.92 K | 4.25 ± 0.18
7.71 K | 5.93 ± 0.26
7.98 K | 6.39 ± 0.27
8.34 K | 7.12 ± 0.31
8.69 K | 7.77 ± 0.33
9.05 K | 8.56 ± 0.33
9.58 K | 9.73 ± 0.42
10 K | 10.9 ± 0.5
10.05 K | 10.9 ± 0.5
10.43 K | 12 ± 0.5
10.82 K | 13.1 ± 0.58
11.21 K | 14.2 ± 0.58
11.44 K | 14.8 ± 0.58
11.66 K | 15.5 ± 0.67
12.08 K | 16.7 ± 0.67
12.66 K | 18.5 ± 0.75
13.36 K | 20.5 ± 0.83
14.03 K | 22.5 ± 0.91
14.57 K | 24.4 ± 1
15 K | 25.6 ± 1.1
15.26 K | 26.4 ± 0.42
15.94 K | 28.6 ± 0.42
16.62 K | 30.87 ± 0.44
17.29 K | 33.05 ± 0.47
17.96 K | 35.26 ± 0.49
18.62 K | 37.36 ± 0.52
18.8 K | 38.09 ± 0.52
19.31 K | 39.63 ± 0.54
19.97 K | 41.7 ± 0.56
20 K | 41.81 ± 0.57
20.6 K | 43.6 ± 0.58
22.51 K | 49.65 ± 0.64
25 K | 57.77 ± 0.72
25.94 K | 60.95 ± 0.75
29.45 K | 71.99 ± 0.84
30 K | 73.7 ± 0.81
31.45 K | 78.36 ± 0.86
33 K | 82.85 ± 0.91
33.62 K | 84.64 ± 0.91
35 K | 88.8 ± 1
35.87 K | 91.21 ± 1
36.5 K | 93.12 ± 1
40 K | 102.8 ± 1.1
40.06 K | 103.7 ± 0.58
43 K | 111 ± 0.67
45 K | 115.8 ± 0.67
46.68 K | 120.9 ± 0.67
49.76 K | 127.9 ± 0.75
50 K | 128 ± 0.75
53.38 K | 136.9 ± 0.75
57.02 K | 145.6 ± 0.83
60 K | 151.4 ± 0.83
60.66 K | 154.2 ± 0.91
64.31 K | 162 ± 0.91
67.97 K | 169.5 ± 0.91
70 K | 174.2 ± 1
71.63 K | 177 ± 1
75.29 K | 185.6 ± 1.1
78 K | 192 ± 1.1
80 K | 195.9 ± 1.1
82.52 K | 200.4 ± 1.1
83.53 K | 202.5 ± 1.2
85.67 K | 207 ± 1.2
88.37 K | 212.3 ± 1.2
90 K | 214.8 ± 1.2
90.22 K | 215.5 ± 1.2
92.48 K | 218.9 ± 1.2
93.76 K | 221 ± 1.2
95.63 K | 223.7 ± 1.2
99.16 K | 228.6 ± 1.2
100 K | 229.7 ± 1.2
102.7 K | 234 ± 1.2
106.23 K | 240 ± 1.2
109.78 K | 244.9 ± 1.2
113.32 K | 250.2 ± 1.3
116 K | 255 ± 1.3
119.8 K | 262 ± 1.3
120 K | 262 ± 1.3
123.36 K | 267.2 ± 1.4
126.75 K | 273.3 ± 1.4
128 K | 275.2 ± 1.4
132.8 K | 282.4 ± 1.5
136 K | 287 ± 1.5
139.71 K | 293.3 ± 1.5
140 K | 293.6 ± 1.5
144.47 K | 301.3 ± 1.6
146.16 K | 303.1 ± 1.6
151.28 K | 310.8 ± 1.6
155 K | 315 ± 1.7
158.48 K | 321.9 ± 1.7
160 K | 324.2 ± 1.7
161 K | 326 ± 1.7
164.87 K | 332.4 ± 1.7
168.1 K | 336.4 ± 1.7
169.28 K | 338.2 ± 1.7
172.52 K | 344.3 ± 1.7

Source: the NIST ThermoML archive (doi:10.1016/j.jct.2018.11.011)
